Measured values: patent publication US6107070A, “Human manganese superoxide dismutase proteins” (University of Florida, priority 1998, dated 2000)
Positions count from the first letter of the chain named. Where two headings read alike, the source gives them in different places.

Experiments:
[1] = biological target: T1, human manganese superoxide dismutase (hMn SOD) variant H30S (His 30 replaced by Ser) (Homo sapiens, UniProt P04179, H54S); experiment: Disproportionation of superoxide by H30S hMnSOD, stopped-flow, 20° C.; format: biochemical; conditions: pH 9.6, 20° C.
T1 construct: as a mature protein tagged with an extra Met at the amino terminus; made in house
T1 sequence (P04179 25-222 H54S): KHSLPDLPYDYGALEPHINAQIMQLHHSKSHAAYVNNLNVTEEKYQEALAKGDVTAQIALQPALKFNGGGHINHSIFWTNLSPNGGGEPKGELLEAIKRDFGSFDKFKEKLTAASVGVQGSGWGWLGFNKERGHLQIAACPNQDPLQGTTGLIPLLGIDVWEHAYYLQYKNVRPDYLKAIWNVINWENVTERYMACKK
Protocol: (§1) Experiments were based on the stabilization of KO2 in aprotic solvent and the subsequent large dilution of this solution by an aqueous solution of enzyme in a stopped-flow apparatus, as described by McClune and Fee (1978). KO2 was dissolved in a mixture of dimethyl sulfoxide and […] (2:1 by volume; Aldrich, spectrophotometric grade) with solubility of KO2 enhanced with 18-crown-6 (Valentine and Curtis, 1975). The stopped-flow spectrophotometer (Kinetic Instruments, Ann Arbor, Mich.) was capable of efficient mixing of this solution with an acqueous solution of enzyme in buffer with a dead time between 1.5 and 2.0 ms. One drive syringe (capacity 50 μl) contained the aprotic solution of O2. This was diluted fifty-fold by the contents of a second syringe (capacity 2.5 ml) which contained enzyme, EDTA, and buffer. The decay of superoxide in initial velocity experiments and progress curves was monitored by its absorption at 250 to 300 nm. Stopped-flow experiments were carried out at […]. Four or more kinetic traces were averaged to reduce noise. Steady-state parameters were obtained by least-squares analysis of such data (Leatherbarrow (1987) "Enzfitter: a nonlinear regression data analysis program for the IBM PC" Elsevier BIOSOFT, Cambridge).
(§2) In the present study, several novel hMnSOD proteins containing substitutions of His 30 (referring to the amino acid sequence of SEQ ID NO:2) were prepared by PCR site directed mutagenesis and purified by column chromatography, as described in the Materials and Methods section above, and as also described by Hsu et al. (1996) J. Biol. Chem. 271: 1768; and Hsieh et al. (1998) Biochemistry 37: 4731. In particular, His 30 was substituted with each of Ala, Asn, Ser and Gln. The resulting novel hMnSOD proteins containing a His 30 substitution were then assayed for enzymatic activity and product inhibition at 20° C. by measuring the absorbance of superoxide at 250 nm using stopped-flow spectrophotometry, as described above in the Materials and Methods section. […]

[2] = biological target: T2, human manganese superoxide dismutase (hMn SOD), wild type, SEQ ID NO:2 (Homo sapiens, UniProt P04179); conditions: cited from earlier work
T2 construct: where it is then cleaved off leaving the mature protein
T2 sequence (P04179 25-222): T1 sequence (P04179 25-222 H54S) with S30H

[3] = biological target: T2, human manganese superoxide dismutase (hMn SOD), wild type, SEQ ID NO:2; experiment: Disproportionation of superoxide by wild type hMnSOD, Example 3 (Tables 4 and 5), 20° C.; format: biochemical
Protocol: as §1, §2

[4] = biological target: T3, human manganese superoxide dismutase (hMn SOD) variant H30A (His 30 replaced by Ala) (Homo sapiens, UniProt P04179, H54A); experiment: Disproportionation of superoxide by H30A hMnSOD, stopped-flow, 20° C.; format: biochemical; conditions: pH 9.6, 20° C.
T3 construct: as a mature protein tagged with an extra Met at the amino terminus; made in house
T3 sequence (P04179 25-222 H54A): T1 sequence (P04179 25-222 H54S) with S30A
Protocol: as §1, §2

[5] = biological target: T2, human manganese superoxide dismutase (hMn SOD), wild type, SEQ ID NO:2; experiment: Decay of superoxide catalyzed by wild-type hMnSOD, pulse radiolysis; format: biochemical; conditions: obtained from Table 3 data and eqs 5-9 of Bull et al. (1991)
Protocol: Experiments were carried out at the Center for Fast Kinetics Research at the University of Texas at Austin using a 4-Mev van der Graaff accelerator. A single high-dose electron pulse was used to generate superoxide radical anions from oxygen in acqueous solutions containing 10 mM sodium formate as hydroxyl radical scavenger (Schwartz, 1981) and 50 μM EDTA in addition to buffer and enzyme. All pulse radiolysis experiments were carried out at 20 ° C. The dismutation of O2^- was followed spectrophotometrically from its absorbance at 250 nm (ε=2000M^1 cm^1, Rabani and Nielson, 1969) with a path length of 2.5 cm. Progress curves for each set of 6 to 9 experiments were averaged. Exposure to ultraviolet radiation was minimized by opening a mechanical shutter a fraction of a second before each pulse.

[6] = Table 1, pulse radiolysis, 20° C., pH 9.6 (Hsu et al., 1996)
[7] = Table 2, KINSIM fit of FIG. 8 scheme to pulse radiolysis data, 20° C., pH 9.6
[8] = Table 3, KINSIM fit to pulse radiolysis data, 20° C., pH 9.6
[9] = Table 4, 20° C., pH 9.4 per footnote

With `[O]O` [superoxide] the kcat ([1]; Table 4) was 1.8 ms^.1, the “kcat /Km” value ([1]; Table 4) was 170 μM^.1 S^.1 and the “ko /[E] (rate constant for the zero-order region of catalysis)” value (“ko /[E]” below) ([1]; Table 5) was 1,000 S^.1. The kcat [2, 6] was 40 ms^-1, the kcat /km [2, 6] was 8e+08 M⁻¹ s⁻¹ and the k1 [2, 7] was 2e+09 M⁻¹ s⁻¹. For the same compound, the k3 [2, 7] was 2e+09 M⁻¹ s⁻¹, the k4 [2, 7] was 80000 s⁻¹ and the k-1 [2, 7] was 20000 s⁻¹. For the same compound, the k-3 [2, 7] was 20000 s⁻¹, the k-4 [2, 7] was 300 M⁻¹ s⁻¹ and the k-5 ([2]; Table 2, KINSIM fit, dead-end complex, 20° C., pH 9.6) was 130 s⁻¹. For the same compound, the k5 ([2]; Table 2, KINSIM fit, formation of dead-end complex, 20° C., pH 9.6) was 20000 s⁻¹, the k1 [2, 8] was 20000 s⁻¹ and the k3 [2, 8] was 20000 s⁻¹. For the same compound, the k4 [2, 8] was 300 M⁻¹ s⁻¹, the k5 [2, 8] was 130 s⁻¹ and the k-1 [2, 8] was 2e+09 M⁻¹ s⁻¹. For the same compound, the k-3 [2, 8] was 2e+09 M⁻¹ s⁻¹, the k-4 [2, 8] was 80000 s⁻¹ and the k-5 [2, 8] was 2 × 10^4. For the same compound, the k2 ([2]; Tables 2 and 3, KINSIM fit of FIG. 8 scheme to pulse radiolysis data, 20° C., pH 9.6) was 80000 s⁻¹, the “kcat /km (diffusion controlled)” value ([2]; approximate value) was ~10^9 M^-1 s^-1 and the “kcat /Km” value ([2]; pH 9.6, 20° C. (Hsu et al., 1996)) was 8e+08 M⁻¹ s⁻¹. For the same compound, the kcat [3, 9] was 40 ms^.1, the “kcat /Km” value [3, 9] was 800 μM^.1 S^.1 and the “ko /[E]” value ([3]; Table 5, pH 9.6, 20° C.) was 500 S^.1. For the same compound, the kcat ([4]; Table 4) was 1.9 ms^.1, the “kcat /Km” value ([4]; Table 4) was 20 μM^.1 S^.1 and the “ko /[E]” value ([4]; Table 5) was 610 S^.1. For the same compound, the Km [5] was 50 µM.
